Experimental findings from article PMC12527922, “Cocaine chemogenetics blunts drug-seeking by synthetic physiology” (Nature, 2025) are described below.

The target of the experiment is coca-5HT3 (α7(L141G,G175K,Y210F,Y217F)–5HT3) (Homo sapiens, UniProt P36544, G175K/L141G/Y210F/Y217F). In words: Membrane potential assay, coca-5HT3 in HEK293. Conditions: for Response / Max normalized Response: coca-5HT3; for response at coca-5HT3: between 10-100 µM; for Max normalized Response: ED Fig 3b.
[1] abbreviates: membrane potential assay dose response.

Chain of coca-5HT3 (α7(L141G,G175K,Y210F,Y217F)–5HT3) (P36544 23-224 L141G/G175K/Y210F/Y217F): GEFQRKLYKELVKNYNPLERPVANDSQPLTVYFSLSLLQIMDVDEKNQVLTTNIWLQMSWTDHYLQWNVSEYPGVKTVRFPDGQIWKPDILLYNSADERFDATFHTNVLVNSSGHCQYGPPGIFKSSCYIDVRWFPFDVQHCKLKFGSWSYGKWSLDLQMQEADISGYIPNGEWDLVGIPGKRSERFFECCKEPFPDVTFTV
Chain of coca-5HT3 (α7(L141G,G175K,Y210F,Y217F)–5HT3) (P23979 242-489, further chain): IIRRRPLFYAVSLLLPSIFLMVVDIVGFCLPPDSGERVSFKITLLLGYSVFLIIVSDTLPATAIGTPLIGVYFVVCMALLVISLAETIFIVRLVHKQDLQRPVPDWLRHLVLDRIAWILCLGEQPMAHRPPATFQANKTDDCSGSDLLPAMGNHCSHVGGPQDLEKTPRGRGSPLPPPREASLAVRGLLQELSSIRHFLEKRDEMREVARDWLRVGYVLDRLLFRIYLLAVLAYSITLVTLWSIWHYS

For the molecule `CCCCC/C=C\C/C=C\C/C=C\C/C=C\CCCC(=O)NCCO` [Anandamide], the Response reads like this: (conc 0.457247 uM, ED Fig 3a) 0.053; (conc 1.37174 uM, ED Fig 3a) 0.085; (conc 12.3457 uM, ED Fig 3a) 0.046; (conc 37.037 uM, ED Fig 3a) 0.011; (conc 111.111 uM, ED Fig 3a) 0.073; (conc 333.333 uM, ED Fig 3a) 0.021. Under “conc 1000 uM, ED Fig 3a”, this molecule yielded a Response of 0.149.
For the molecule `N[C@@H](CC(=O)O)C(=O)O` [Aspartate], the Response runs as follows: (conc 0.457247 uM, ED Fig 3a) 0.065; (conc 1.37174 uM, ED Fig 3a) 0.034; (conc 12.3457 uM, ED Fig 3a) 0.025; (conc 37.037 uM, ED Fig 3a) 0.074; (conc 111.111 uM, ED Fig 3a) 0.072; (conc 333.333 uM, ED Fig 3a) 0.088. This molecule also displayed a Response (conc 1000 uM, ED Fig 3a) of 0.232.
With `CN1[C@@H]2CC[C@H]1C[C@@H](OC(c1ccccc1)c1ccccc1)C2` [Benztropine], the “response at coca-5HT3” value is listed as “substantial response”. For the same molecule, under “conc 0.137 uM”, the “Max normalized Response” value amounted to 0.05732. The “Max normalized Response” value (conc 3.7 uM) is 0.1399. The “Max normalized Response” value (conc 11.1 uM) is on record as 0.2931. For the same molecule, the “Max normalized Response” value (conc 33.3 uM) is reported as 0.5901. For the same molecule, the “Max normalized Response” value (conc 100 uM) came out at 1.051.
In the case of `N[C@H](CO)C(=O)O` [D-serine], the Response (conc 0.457247 uM, ED Fig 3a) stood at 0.104; the Response (conc 1.37174 uM, ED Fig 3a) was found to be 0.061; the Response (conc 12.3457 uM, ED Fig 3a) was found to be 0.037; the Response (conc 37.037 uM, ED Fig 3a) came out at 0.062; the Response (conc 111.111 uM, ED Fig 3a) was determined as 0.111; the Response (conc 333.333 uM, ED Fig 3a) was 0.06. For the same molecule, the Response (conc 1000 uM, ED Fig 3a) stood at 0.145.
Regarding `NCCc1ccc(O)c(O)c1` [Dopamine], the Response (conc 0.457247 uM, ED Fig 3a) was determined as 0.119; the Response (conc 1.37174 uM, ED Fig 3a) came to 0.062; the Response (conc 12.3457 uM, ED Fig 3a) is given as 0.04; the Response (conc 37.037 uM, ED Fig 3a) stood at 0.017; the Response (conc 111.111 uM, ED Fig 3a) came out at 0.052; the Response (conc 333.333 uM, ED Fig 3a) was 0.039. Where the note is “conc 1000 uM, ED Fig 3a”, this molecule showed a Response of 0.106.
On to `CNC[C@H](O)c1ccc(O)c(O)c1` [Epinephrine], for which the Response was 0.136 (conc 0.457247 uM, ED Fig 3a); 0.141 (conc 1.37174 uM, ED Fig 3a); 0.06 (conc 12.3457 uM, ED Fig 3a); 0.029 (conc 37.037 uM, ED Fig 3a); 0.188 (conc 111.111 uM, ED Fig 3a).
As for `NCCCC(=O)O` [GABA], the Response by setting is: (conc 0.457247 uM, ED Fig 3a) 0.157; (conc 1.37174 uM, ED Fig 3a) 0.099; (conc 12.3457 uM, ED Fig 3a) 0.041; (conc 37.037 uM, ED Fig 3a) 0.055; (conc 111.111 uM, ED Fig 3a) 0.023; (conc 333.333 uM, ED Fig 3a) 0.05. Further, for the setting “conc 1000 uM, ED Fig 3a”, the Response is 0.066.
Consider `N[C@@H](CCC(=O)O)C(=O)O` [Glutmate], for which the Response came to 0.109 (conc 0.457247 uM, ED Fig 3a); 0.069 (conc 1.37174 uM, ED Fig 3a); 0 (conc 12.3457 uM, ED Fig 3a); 0.041 (conc 37.037 uM, ED Fig 3a); 0.031 (conc 111.111 uM, ED Fig 3a); 0.048 (conc 333.333 uM, ED Fig 3a). The Response (conc 1000 uM, ED Fig 3a) is listed as 0.028.
Regarding `NCC(=O)O` [Glycine], the Response is recorded as 0.223 (conc 0.457247 uM, ED Fig 3a); 0.03 (conc 1.37174 uM, ED Fig 3a); 0.032 (conc 12.3457 uM, ED Fig 3a); 0.042 (conc 37.037 uM, ED Fig 3a); 0.053 (conc 111.111 uM, ED Fig 3a); 0.108 (conc 333.333 uM, ED Fig 3a). The Response (conc 1000 uM, ED Fig 3a) turned out to be 0.232.
Consider `NCCc1c[nH]cn1` [Histamine], for which the Response is reported as 0.136 (conc 0.457247 uM, ED Fig 3a); 0.016 (conc 1.37174 uM, ED Fig 3a); 0.035 (conc 12.3457 uM, ED Fig 3a); 0.028 (conc 37.037 uM, ED Fig 3a); 0.056 (conc 111.111 uM, ED Fig 3a); 0.051 (conc 333.333 uM, ED Fig 3a). Moreover, the Response (conc 1000 uM, ED Fig 3a) was determined as 0.086.
Regarding `CN1[C@@H]2CC[C@H]1C[C@@H](OC(=O)[C@H](CO)c1ccccc1)C2` [Hyoscyamine], the “Max normalized Response” value reads like this: (conc 0.137 uM) 0.1005; (conc 3.7 uM) 0.08466; (conc 11.1 uM) 0.09524; (conc 33.3 uM) 0.1217; (conc 100 uM) 0.01058.
Consider `CC(C)[N+]1(C)[C@@H]2CC[C@H]1C[C@@H](OC(=O)C(CO)c1ccccc1)C2` (stereo partly drawn) [Ipatropium], for which the “Max normalized Response” value is listed as 0.03351 (conc 0.137 uM); 0.3358 (conc 3.7 uM); 0.05921 (conc 11.1 uM); 0.03979 (conc 33.3 uM); 0.03984 (conc 100 uM).
Turning to `CCN(CC)CC(=O)Nc1c(C)cccc1C` [Lidocaine], the “Max normalized Response” value is 0.1106 (conc 0.137 uM); 0.1119 (conc 3.7 uM); 0.1369 (conc 11.1 uM); 0.1879 (conc 33.3 uM); 0.1519 (conc 100 uM). The “activation of coca-5HT3” value (up to 100 µM) is “did not activate”.
`C[N+]1(C)[C@@H]2C[C@@H](OC(=O)[C@H](CO)c3ccccc3)C[C@H]1[C@@H]1O[C@@H]12` [Methscopolamine]: the “Max normalized Response” value is given as 0.01611 (conc 0.137 uM); 0.08959 (conc 3.7 uM); 0.03432 (conc 11.1 uM); 0.1141 (conc 33.3 uM); 0.3973 (conc 100 uM).
Take `C[N+]1(C)[C@@H]2CC[C@H]1C[C@@H](OC(=O)C(CO)c1ccccc1)C2` (stereo partly drawn) [Methylatropine]: the “response at coca-5HT3” value is “substantial response”. Further, where the note is “conc 0.137 uM”, the “Max normalized Response” value is on record as 0.09159. The “Max normalized Response” value (conc 3.7 uM) is recorded as 0.07315. In addition, the “Max normalized Response” value (conc 11.1 uM) came to 0.365. Under “conc 33.3 uM”, the “Max normalized Response” value is on record as 0.7258. Also, the “Max normalized Response” value (conc 100 uM) is given as 0.936.
Turning to `NC[C@H](O)c1ccc(O)c(O)c1` [Norepinephrine], the Response by setting is: (conc 0.457247 uM, ED Fig 3a) 0.151; (conc 1.37174 uM, ED Fig 3a) 0.081; (conc 12.3457 uM, ED Fig 3a) 0.077; (conc 37.037 uM, ED Fig 3a) 0.059; (conc 111.111 uM, ED Fig 3a) 0.059; (conc 333.333 uM, ED Fig 3a) 0.043.
Turning to `CC[N+]1(C)[C@@H]2CC(OC(=O)[C@H](CO)c3ccccc3)C[C@H]1[C@@H]1O[C@@H]12` (stereo partly drawn) [Oxitroprium], the “Max normalized Response” value by setting is: (conc 0.137 uM) 0.04923; (conc 3.7 uM) 0.04777; (conc 11.1 uM) 0.1339; (conc 33.3 uM) 0.03611; (conc 100 uM) 0.1339.
Consider `CCN(CC)CCOC(=O)c1ccc(N)cc1` [Procaine], for which the “Max normalized Response” value is, setting by setting: (conc 0.137 uM) 0.07766; (conc 3.7 uM) 0.1325; (conc 11.1 uM) 0.1562; (conc 33.3 uM) 0.143; (conc 100 uM) 0.166. Also, under “up to 100 µM”, the “activation of coca-5HT3” value was “did not activate”.
For `CN1[C@@H]2C[C@@H](OC(=O)[C@H](CO)c3ccccc3)C[C@H]1[C@@H]1O[C@@H]12` [Scopolamine], the “Max normalized Response” value was 0.06195 (conc 0.137 uM); 0.06448 (conc 3.7 uM); 0.04953 (conc 11.1 uM); 0.06371 (conc 33.3 uM); 0.0598 (conc 100 uM).
Regarding `NCCc1c[nH]c2ccc(O)cc12` [Serotonin], the Response by setting is: (conc 1.37174 uM, ED Fig 3a) 0.295; (conc 12.3457 uM, ED Fig 3a) 0.101; (conc 37.037 uM, ED Fig 3a) 0.082; (conc 111.111 uM, ED Fig 3a) 0.115; (conc 333.333 uM, ED Fig 3a) 0.156; (conc 1000 uM, ED Fig 3a) 0.112.
As for `C[N+]1(C)[C@@H]2C[C@@H](OC(=O)C(O)(c3cccs3)c3cccs3)C[C@H]1[C@@H]1O[C@@H]12` [Tiotropium], the “Max normalized Response” value reads like this: (conc 0.137 uM) 0.05284; (conc 3.7 uM) 0.03225; (conc 11.1 uM) 0.04379; (conc 33.3 uM) 0.159; (conc 100 uM) 0.2432.
For `O=C(O[C@H]1C[C@H]2CC[C@@H](C1)[N+]21CCCC1)C(O)(c1ccccc1)c1ccccc1` [Trospium], the “Max normalized Response” value is, setting by setting: (conc 0.137 uM) 0.127; (conc 3.7 uM) 0.2063; (conc 11.1 uM) 0.1005; (conc 33.3 uM) 0.1217; (conc 100 uM) 0.03704.
In the case of `Nc1ncnc2c1ncn2[C@@H]1O[C@H](CO)[C@@H](O)[C@H]1O` [adenosine], the Response is on record as 0.126 (conc 0.457247 uM, ED Fig 3a); 0.045 (conc 1.37174 uM, ED Fig 3a); 0.079 (conc 12.3457 uM, ED Fig 3a); 0.053 (conc 37.037 uM, ED Fig 3a).
For `CC(N)Cc1ccccc1` (stereo not drawn) [amphetamine], the Response (conc 0.0137 uM, ED Fig. 2c) is reported as 0.05; the Response (conc 0.123 uM, ED Fig. 2c) turned out to be 0.058; the Response (conc 0.37 uM, ED Fig. 2c) is given as 0.049; the Response (conc 10 uM, ED Fig. 2c) came out at 0.028; the Response (conc 30 uM, ED Fig. 2c) was determined as 0.055. Besides, under setting [1], the “activation of coca-5HT3” value is given as “did not activate”.
On to `CN1[C@H]2CC[C@@H]1[C@@H](C(=O)O)[C@@H](OC(=O)c1ccccc1)C2` [benzoyl ecgonine], for which the Response turned out to be 0.07 (conc 0.0137174 uM, ED Fig. 2b); 0.088 (conc 0.123457 uM, ED Fig. 2b); 0.072 (conc 0.37037 uM, ED Fig. 2b); 0.062 (conc 1.11111 uM, ED Fig. 2b); 0.097 (conc 3.33333 uM, ED Fig. 2b); 0.074 (conc 10 uM, ED Fig. 2b). Under “conc 30 uM, ED Fig. 2b”, this molecule showed a Response of 0.088. Besides, the “activation of coca-5HT3” value under setting [1] is reported as “not activated”.
